Results taken from ChEMBL document CHEMBL1781988, “Quinolizidinyl derivatives of bi- and tricyclic systems as potent inhibitors of acetyl- and butyrylcholinesterase with potential in Alzheimer's disease” (Eur J Med Chem, 2011).

Assays:
[1] = molecular target: Cholinesterase (Equus caballus) (UniProt P81908); assay: Inhibition of Equine serum BChE using butyrylthiocholine iodide as a substrate at 10 uM after 20 mins by Ellman's assay
Cholinesterase [2] = molecular target: Cholinesterase (Equus caballus, UniProt P81908)
Chain of Cholinesterase (Equus caballus, UniProt P81908) (P81908 whole entry): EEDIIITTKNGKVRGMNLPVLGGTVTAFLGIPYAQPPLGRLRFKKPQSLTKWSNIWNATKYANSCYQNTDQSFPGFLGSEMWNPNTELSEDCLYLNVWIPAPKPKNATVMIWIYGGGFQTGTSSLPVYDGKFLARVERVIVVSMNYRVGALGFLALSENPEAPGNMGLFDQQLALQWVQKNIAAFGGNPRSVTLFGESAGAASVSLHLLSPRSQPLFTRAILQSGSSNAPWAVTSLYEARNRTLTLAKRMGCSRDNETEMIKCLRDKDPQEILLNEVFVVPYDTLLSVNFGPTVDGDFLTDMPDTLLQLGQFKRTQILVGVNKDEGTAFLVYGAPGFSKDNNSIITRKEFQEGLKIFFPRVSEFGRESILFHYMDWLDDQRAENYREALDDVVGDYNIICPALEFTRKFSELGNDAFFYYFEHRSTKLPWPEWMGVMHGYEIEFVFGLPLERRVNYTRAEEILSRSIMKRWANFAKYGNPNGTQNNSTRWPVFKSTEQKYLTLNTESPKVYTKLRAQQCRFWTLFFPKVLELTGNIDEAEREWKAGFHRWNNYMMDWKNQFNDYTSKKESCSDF
Description: Inhibition of Equine serum BChE using butyrylthiocholine iodide as a substrate after 20 mins by Ellman's assay

Acetylcholinesterase [3] = molecular target: T1, Acetylcholinesterase (Bos taurus, UniProt P23795)
T1 sequence (P23795 whole entry): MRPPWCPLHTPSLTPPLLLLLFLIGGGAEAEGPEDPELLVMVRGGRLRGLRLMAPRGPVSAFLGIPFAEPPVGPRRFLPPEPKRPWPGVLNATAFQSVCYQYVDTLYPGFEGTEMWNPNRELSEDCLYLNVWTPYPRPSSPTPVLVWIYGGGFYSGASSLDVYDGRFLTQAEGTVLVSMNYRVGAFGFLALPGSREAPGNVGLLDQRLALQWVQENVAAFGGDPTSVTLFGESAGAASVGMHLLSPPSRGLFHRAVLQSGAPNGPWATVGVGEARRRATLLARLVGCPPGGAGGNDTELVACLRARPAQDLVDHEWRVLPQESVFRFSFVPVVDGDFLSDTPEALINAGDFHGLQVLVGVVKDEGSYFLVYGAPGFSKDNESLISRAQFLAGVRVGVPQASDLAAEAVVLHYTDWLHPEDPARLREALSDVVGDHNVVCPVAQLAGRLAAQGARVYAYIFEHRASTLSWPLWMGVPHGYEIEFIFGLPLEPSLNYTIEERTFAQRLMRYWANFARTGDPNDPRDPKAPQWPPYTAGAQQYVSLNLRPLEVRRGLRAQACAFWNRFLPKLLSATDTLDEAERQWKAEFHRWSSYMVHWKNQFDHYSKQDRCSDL
Description: Inhibition of bovine erythrocyte AChE using acetylthiocholine iodide as a substrate after 20 mins by Ellman's assay

[4] = Selectivity index, ratio of IC50 for bovine erythrocyte AChE to IC50 for Equine serum BChE
Acetylcholinesterase [5] = molecular target: T2, Acetylcholinesterase (Homo sapiens, UniProt P22303)
T2 sequence (P22303 whole entry): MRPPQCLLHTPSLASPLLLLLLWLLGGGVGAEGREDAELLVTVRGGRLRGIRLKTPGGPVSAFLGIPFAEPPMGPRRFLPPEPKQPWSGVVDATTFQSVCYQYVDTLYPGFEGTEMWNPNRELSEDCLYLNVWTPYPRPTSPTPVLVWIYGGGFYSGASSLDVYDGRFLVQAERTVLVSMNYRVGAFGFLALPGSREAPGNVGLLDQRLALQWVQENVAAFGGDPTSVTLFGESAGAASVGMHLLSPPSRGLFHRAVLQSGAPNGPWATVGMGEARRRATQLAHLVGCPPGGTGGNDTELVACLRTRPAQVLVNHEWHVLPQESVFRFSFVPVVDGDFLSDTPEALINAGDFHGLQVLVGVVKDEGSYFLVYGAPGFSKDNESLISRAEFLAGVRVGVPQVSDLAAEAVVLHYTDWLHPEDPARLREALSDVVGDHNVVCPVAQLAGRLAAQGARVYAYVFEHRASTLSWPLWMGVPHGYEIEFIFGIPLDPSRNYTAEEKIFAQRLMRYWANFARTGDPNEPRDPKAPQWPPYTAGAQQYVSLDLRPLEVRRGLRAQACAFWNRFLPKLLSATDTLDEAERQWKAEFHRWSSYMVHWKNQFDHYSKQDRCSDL
Description: Inhibition of human plasma AChE

[6] = molecular target: Muscarinic acetylcholine receptor; assay: Inhibition of muscarinic receptor in rat brain synaptosomes; assay type: subcellular
Acetylcholinesterase [7] = molecular target: T2, Acetylcholinesterase; remark: listed apart in the source
Description: Inhibition of human erythrocytes AChE

Cholinesterase [8] = molecular target: Cholinesterase (Homo sapiens, UniProt P06276)
Chain of Cholinesterase (Homo sapiens, UniProt P06276) (P06276 whole entry, looked up): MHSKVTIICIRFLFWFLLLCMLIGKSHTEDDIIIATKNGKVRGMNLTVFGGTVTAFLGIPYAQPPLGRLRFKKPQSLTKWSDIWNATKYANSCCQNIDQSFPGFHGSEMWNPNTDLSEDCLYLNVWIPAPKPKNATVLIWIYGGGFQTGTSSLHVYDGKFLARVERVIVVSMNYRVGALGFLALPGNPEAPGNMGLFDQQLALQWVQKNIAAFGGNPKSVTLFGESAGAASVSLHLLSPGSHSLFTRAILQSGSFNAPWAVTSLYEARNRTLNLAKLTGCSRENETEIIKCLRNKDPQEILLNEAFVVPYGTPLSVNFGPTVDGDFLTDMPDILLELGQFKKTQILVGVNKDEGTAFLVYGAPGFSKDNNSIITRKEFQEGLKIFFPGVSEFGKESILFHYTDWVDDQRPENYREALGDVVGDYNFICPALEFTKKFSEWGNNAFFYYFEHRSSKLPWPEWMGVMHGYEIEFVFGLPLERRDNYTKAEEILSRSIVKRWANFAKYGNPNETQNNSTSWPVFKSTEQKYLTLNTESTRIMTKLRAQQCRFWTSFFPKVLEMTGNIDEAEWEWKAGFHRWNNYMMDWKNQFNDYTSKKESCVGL
Description: Inhibition of human plasma BChE

Chain of Cholinesterase (Equus caballus) (P81908 whole entry): as the sequence (P81908 whole entry) above

SMILES | IC50 (Cholinesterase [2]) [nM] | IC50 (Acetylcholinesterase [3]) [nM] | also measured
O=C1Nc2cccnc2N(CSC[C@@H]2CCCN3CCCC[C@H]23)c2ccccc21 | – | – | inhibition [1]: 34%
c1ccc2c(c1)-c1ccccc1C2C[C@@H]1CCCN2CCCC[C@H]12 | 630 | – | –
O=C(C[C@@H]1CCCN2CCCC[C@H]12)N1c2ccccc2Sc2ccccc21 [HOMOLUPINANOYLPHENOTHIAZINE] | 3000 | – | –
O=c1ccc2cc(OCCCSC[C@@H]3CCCN4CCCC[C@H]34)ccc2o1 | 5400 | 5400 | Ratio IC50 [4]: 0.06
N#Cc1ccc2c(c1)N(CCCN1CCC(O)CC1)c1ccccc1S2 [PERICIAZINE] | 230 | 7000 | Ratio IC50 [4]: 30
O=C(CCSC[C@@H]1CCCN2CCCC[C@H]12)N1c2ccccc2Sc2ccccc21 | 750 | – | –
CCCCCCCNC(=O)Oc1ccc2c(c1)[C@]1(C)CCN(C)[C@@H]1N2C [EPTASTIGMINE] | – | – | IC50 (Acetylcholinesterase [5]): 22000 nM
O=C(CCCSC[C@@H]1CCCN2CCCC[C@H]12)N1c2ccccc2Sc2ccccc21 | 740 | 6800 | Ratio IC50 [4]: 9.2
c1ccc(N(C[C@@H]2CCCN3CCCC[C@H]23)c2ccccc2)cc1 | 8100 | 8900 | Ratio IC50 [4]: 1.1
COc1ccc2c(c1)N(C(=O)CSC[C@@H]1CCCN3CCCC[C@H]13)c1ccccc1S2 | 1200 | – | –
COc1ccc2nc3cc(Cl)ccc3c(SC[C@@H]3CCCN4CCCC[C@H]34)c2c1 | 4700 | – | –
c1ccc2c(c1)CCc1ccccc1N2CSC[C@@H]1CCCN2CCCC[C@H]12 | 860 | – | –
O=C1Nc2cccnc2N(C[C@@H]2CCCN3CCCC[C@H]23)c2ccccc21 | – | – | inhibition [1]: 28%
O=c1ccc2cc(OCCCNC[C@@H]3CCCN4CCCC[C@H]34)ccc2o1 | – | 6600 | inhibition [1]: 40%
CCN(CC)C(C)C(=O)N1c2ccccc2Sc2ccccc21 (stereo unspecified) | 840 | – | –
FC(F)(F)c1ccc2c(c1)N(C[C@@H]1CCCN3CCCC[C@H]13)c1ccccc1S2 | 4000 | – | –
c1ccc2c(c1)Sc1ccccc1N2C1CN2CCC1CC2 (stereo unspecified) | 3000 | – | IC50 [6]: 100 nM
C[N+]12CCCC[C@@H]1[C@H](CC1c3ccccc3Sc3ccccc31)CCC2 (stereo partly specified) | 410 | – | –
C(=C1c2ccccc2CCc2ccccc21)[C@@H]1CCCN2CCCC[C@H]12 | 4200 | – | –
c1ccc2c(c1)Cc1ccccc1N2C[C@@H]1CCCN2CCCC[C@H]12 | 1400 | – | –
CC(C)c1ccc(NC(=O)Oc2ccc3c(c2)[C@]2(C)CCN(CCc4ccccc4)[C@@H]2N3C)cc1 | – | – | IC50 (Acetylcholinesterase [7]): > 30000 nM; IC50 (Cholinesterase [8]): 6 nM; IC50 (Acetylcholinesterase [5]): > 30000 nM
c1ccc2c(c1)c1ccccc1n2C[C@@H]1CCCN2CCCC[C@H]12 | 2000 | – | –
O=C(CCCCSC[C@@H]1CCCN2CCCC[C@H]12)N1c2ccccc2Sc2ccccc21 | 890 | 5700 | Ratio IC50 [4]: 6.4
O=C(C[C@H]1CCCN2CCCC[C@H]12)N1c2ccccc2Sc2ccccc21 | 4800 | – | –
c1ccc2c(c1)[Se]c1ccccc1N2C[C@H]1CCCN2CCCC[C@H]12 | 870 | – | –

SMILES | IC50 (Cholinesterase [2]) [nM] | IC50 (Acetylcholinesterase [3]) [nM] | also measured
C(=C(c1ccccc1)c1ccccc1)[C@@H]1CCCN2CCCC[C@H]12 | 3800 | – | –
CC(SC[C@@H]1CCCN2CCCC[C@H]12)C(=O)N1c2ccccc2Sc2ccccc21 (stereo partly specified) | 470 | – | –
O=C(CSC[C@@H]1CCCN2CCCC[C@H]12)N1c2ccccc2Sc2ccccc21 | 430 | – | –
O=c1ccc2cc(OCCCCCSC[C@@H]3CCCN4CCCC[C@H]34)ccc2o1 | 5800 | 680 | Ratio IC50 [4]: 0.12
OC1(C[C@@H]2CCCN3CCCC[C@H]23)c2ccccc2Sc2ccccc21 | 950 | – | –
CN1CCCC(CC2c3ccccc3Sc3ccccc32)C1 (stereo unspecified) [METHIXENE] | 1600 | – | –
CN(C)CC(C)(C)c1cccc(OC(=O)NCCCCN2CCOCC2)c1 | – | – | IC50 (Acetylcholinesterase [7]): 100000 nM; IC50 (Cholinesterase [8]): 9 nM; IC50 (Acetylcholinesterase [5]): 100000 nM
COc1ccc2nc3cc(Cl)ccc3c(NCCCSC[C@@H]3CCCN4CCCC[C@H]34)c2c1 | 690 | 220 | Ratio IC50 [4]: 0.32
c1ccc2c(c1)-c1ccccc1C2C[C@H]1CCCN2CCCC[C@H]12 | 1100 | – | –
c1ccc2c(c1)Sc1ccccc1N2C[C@@H]1CCCN2CCCC[C@H]12 [LUPINYLPHENOTHIAZINE] | 2000 | – | IC50 [6]: 100 nM
c1ccc2c(c1)CCc1ccccc1N2C[C@@H]1CCCN2CCCC[C@H]12 | 2200 | – | –
C1=Cc2ccccc2C(=C[C@@H]2CCCN3CCCC[C@H]23)c2ccccc21 | 2000 | 8300 | Ratio IC50 [4]: 4.1
C(=C1c2ccccc2Sc2ccccc21)[C@@H]1CCCN2CCCC[C@H]12 | 930 | – | –
c1ccc(C(C[C@@H]2CCCN3CCCC[C@H]23)c2ccccc2)cc1 | 5500 | 6700 | Ratio IC50 [4]: 1.2
C1=Cc2ccccc2N(C[C@@H]2CCCN3CCCC[C@H]23)c2ccccc21 | 2200 | 8300 | Ratio IC50 [4]: 3.8
c1ccc2c(c1)Sc1ccccc1C2C[C@@H]1CCCN2CCCC[C@H]12 | 150 | 7000 | IC50 [6]: 100 nM; Ratio IC50 [4]: 47
COc1ccc2nc3cc(Cl)ccc3c(NC[C@@H]3CCCN4CCCC[C@H]34)c2c1 | 870 | 7300 | Ratio IC50 [4]: 8.4
C[N+]12CCCC[C@@H]1[C@H](CN1c3ccccc3Sc3ccccc31)CCC2 (stereo partly specified) | 510 | – | –
c1ccc2c(c1)Oc1ccccc1N2C[C@@H]1CCCN2CCCC[C@H]12 | 2200 | – | –
c1ccc2c(c1)[Se]c1ccccc1N2C[C@@H]1CCCN2CCCC[C@H]12 | 1100 | – | –
COc1ccc2nc3cc(Cl)ccc3c(NCCSC[C@@H]3CCCN4CCCC[C@H]34)c2c1 | 340 | 840 | Ratio IC50 [4]: 2.5
O=c1ccc2cc(OCCCCSC[C@@H]3CCCN4CCCC[C@H]34)ccc2o1 | 4300 | 1200 | Ratio IC50 [4]: 0.28
CCN(CC)C(C)CN1c2ccccc2Sc2ccccc21 (stereo unspecified) [ETHOPROPAZINE] | 720 | – | IC50 (Cholinesterase [8]): 300 nM
c1ccc(C(SC[C@@H]2CCCN3CCCC[C@H]23)c2ccccc2)cc1 | 3300 | – | –
